From paper PMC7515829, “HKDC1 C-terminal based peptides inhibit extranodal natural killer/T-cell lymphoma by modulation of mitochondrial function and EBV suppression” (Leukemia, 2020)
Where two headings read alike, the source gives them in different places.

Assays:
[1] = system: SNK6 xenograft; experiment: Mouse survival, Kaplan–Meier analysis; type: in vivo; settings: nude mice, intratumoral 50 µM peptide every 2 days from day ~18, compared with CTL group, n = 9
Method: Statistical analysis. The data was given as mean ± SEM; all of the experiments were performed at least in quadruplicate unless otherwise indicated. One-way ANOVA followed by the Bonferroni post hoc test was used to determine statistical significance of different groups. The mouse survival curve was determined through Kaplan-Meier survival analysis using SPSS 22 software, and a P value < 0.05 was considered significant (8).

[2] = system: SNK6 cells; experiment: Apoptosis rate by TUNEL assay; type: cell-based, human; settings: 0.5 µM peptide, 6 h, compared with CTL group, n = 5 (Fig. 4h)
Method: (§1) Measurement of apoptosis and cell death. Apoptosis was evaluated by TUNEL assay using the In Situ Cell Death Detection Kit™ (Roche). Cells were fixed in 4% paraformaldehyde and labeled with TUNEL reagents. Stained cells were photographed by a fluorescence microscope (11). For cell death analysis, the propidium iodide (PI) staining was performed by addition of 6.25 µg/ml of PI to the cells, and cell death was immediately evaluated by FACS analysis (3).

[3] = system: SNK6 cells
Excerpt: (§2) We investigated the potential role of HKDC1-based peptides in ENKTL cells that were isolated from the MNCs of ENKTL patients or SNK6 cell line. Three different kinds of HKDC1-based targeting peptides, including the last 15 aa at either the N-terminal (HKN15) or C-terminal (HKC15), or the last eight aa at the C-terminal (HKC8) were selected; four different kinds of cell-penetrating sequences were employed to deliver the HKDC1-based peptides, including Antp (a 16 penetrating residue long sequence from the Drosophila antennapedia-homeodomain), penetration-accelerating segment, TAT (HIV-1 TAT sequence), and Tf (the Tf receptor (TfR) internalization sequence) sequences. All of the aa with the D-configuration (marked as D) were synthesized as retro-inverso peptides. […] We then evaluated the toxic effect of two peptides (including Tf-D-HKC15 and Tf-D-HKC8) on different kinds of primary and cancer cell lines (see details in Table 2). […] We also evaluated the peptide delivery efficiency using ^125I-labeled uptake assay for both Tf-D-HKC8 and Tf-D-HKC15 peptides.
as §1

[4] = system: MNCs from ENKTL patients; settings: read-out: IC50 (µM) ENKTL, half-maximal cell death activity, peptides 0.1–15 µM, 6 h, PI staining, FACS, mean ± SEM, n in cell
Excerpt: as §2, §1

[5] = system: SNK6 cells; experiment: Colony formation in soft agar; type: cell-based, human; settings: 0.5 µM peptide, 6 h, vs CTL, n = 5 (Fig. 5e)
Method: Colony formation in soft agar. This assay is a method for evaluating the ability of individual cell lines to grow in an anchorage-independent manner. Cells were resuspended in DMEM containing 5% FBS with 0.3% agarose and layered on top of 0.5% agarose in DMEM on 60-mm plates. 1000 cells were seeded in 60mm soft agar dishes for 30 days. The dishes were examined twice per week, and colonies that grew beyond […] in diameter were scored as positive. Each experiment was done in quadruplicate (8).

[6] = system: P-gp; experiment: Protein level in xenograft tumor tissue (western blot); type: in vivo, mouse; settings: SNK6 xenograft, nude mice; intratumoral 50 µM peptide every 2 days from day ~18; tissue day 50; western blot vs CTL; n = 5
Excerpt: (§3) Biomedical analysis of tumor tissues.

[7] = system: EBV EA-D; experiment: as above; type: in vivo, mouse; settings: SNK6 xenograft, nude mice; intratumoral 50 µM peptide every 2 days from day ~18; tissue day 50; western blot vs CTL; n = 5
Excerpt: as §3

[8] = system: Zta; settings: SNK6 xenograft, nude mice; intratumoral 50 µM peptide every 2 days from day ~18; tissue day 50; IHC vs CTL; n = 3
Method: To measure malignant SNK6 xenograft growth, 100 µl of 1 × 10^5 SNK6 cells in PBS were mixed with 100 µl growth factor-reduced basement membrane matrix (Matrigel™, BD Biosciences) resulting in 200 µl of solution that was injected subcutaneously along the mouse flank at each intended tumor site. Tumor size was measured using a digital caliper and volume was calculated, and mice were randomly divided into four groups (n = 9 per group) when the tumor volume reached 50–100 mm^3 on day ~18 after tumor inoculation and given treatment as follows: Group 1 (control (CTL)) was intratumorally injected with HBSS buffer (5.33 mM KCl, 0.44 mM KH2PO4, 138 mM NaCl, 4 mM NaHCO3, 0.3 mM Na2HPO4, and 5.6 mM glucose, pH 7.3) containing 0.05% DMSO; Group 2 (Tf-D-HKN15) received HBSS buffer containing 0.05% DMSO with 50 µM Tf-D-HKN15 peptides; Group 3 (Tf-D-HKC15) received HBSS buffer containing 0.05% DMSO with 50 µM Tf-D-HKC15 peptides; Group 4 (Tf-D-HKC8) received HBSS buffer containing 0.05% DMSO with 50 µM Tf-D-HKC8 peptides. […] Beginning on the day of inoculation, mouse weight and tumor volume were monitored every 2 days. Mice were monitored for changes in body weight and sacrificed when values fell below 20% of their initial weight; the survival curve was calculated and the final tumor tissues were isolated for biomedical analysis. […]

[9] = target: T1, HKDC1/VDAC1 (Homo sapiens, UniProt P21796); experiment: IP/WB association of HKDC1 with VDAC1 in HMECs; type: cell-based; set-up: endogenous in cells; settings: 0.5 µM peptide, 6 h, compared with CTL group, n = 5 (Fig S3)
Method: (§4) Immunoprecipitation (IP) and Western Blotting (WB). Cell lysates were pre-cleared by pre-immune IgG plus Protein A agarose beads for 2 hours, and the supernatants were immunoprecipitated by the indicated antibodies and a 50% slurry of Protein A Agarose beads overnight at 4 °C (9). After washing with buffer containing 50 mM Tris, pH 7.5, 150 mM NaCl, 1% NP-40, and 0.5% deoxycholate with protease inhibitors, proteins were released, separated on 10% SDS-PAGE gels, blotted by primary antibodies, and then simultaneously incubated with the differentially labeled species-specific secondary antibodies, anti-RABBIT IRDye™ 800CW (green) and anti-MOUSE (or goat) ALEXA680 (red). Membranes were scanned and quantitated by the ODYSSEY Infrared Imaging System (LI-COR, NE) (10).
(§5) Figure S3. Peptide Tf-D-HKC8 dissociates HKDC1 from VDAC1 in cancer cells, but little effect on normal cells. Different cells, including HMECS, HANK1 and SW480, were treated by either control (CTL) or Tf-D-HKC8 peptide (0.5µM) for 6 hours, and the cells were used for IP/WB analysis. (a) Representative western blotting bands for IP/WB. (b) Protein quantitation for IP/WB for (a), n=5. *, P<0.05, vs CTL group. Results were expressed as mean ± SEM.

[10] = target: T1, HKDC1/VDAC1; experiment: IP/WB association of HKDC1 with VDAC1 in SW480 cells; type: cell-based; set-up: endogenous in cells; settings: 0.5 µM peptide, 6 h, compared with CTL group, n = 5 (Fig S3)
Method: as §4, §5

[11] = target: T1, HKDC1/VDAC1; experiment: IP/WB association of HKDC1 with VDAC1 in HANK1 cells; type: cell-based; set-up: endogenous in cells; settings: 0.5 µM peptide, 6 h, compared with CTL group, n = 5 (Fig S3)
Method: as §4, §5

[12] = read-out: IC50 (µM) SNK6, half-maximal cell death activity, SNK6 cells, peptides 0.1–15 µM, 6 h, PI staining, FACS, mean ± SEM, n in cell (Table 1)

T1 sequence (P21796 2-283 limits assumed): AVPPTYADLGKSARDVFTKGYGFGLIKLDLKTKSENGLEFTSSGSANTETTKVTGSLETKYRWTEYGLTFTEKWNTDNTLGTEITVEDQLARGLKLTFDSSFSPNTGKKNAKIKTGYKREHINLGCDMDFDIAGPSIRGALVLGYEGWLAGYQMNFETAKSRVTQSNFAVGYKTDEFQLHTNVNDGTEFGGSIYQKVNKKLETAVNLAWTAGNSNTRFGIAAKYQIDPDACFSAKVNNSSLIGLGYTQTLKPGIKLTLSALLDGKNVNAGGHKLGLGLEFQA

Substance | mouse survival [1] | apoptosis rate increase [2] | IC50 [3, 12] | IC50 ([3]; read-out: Peptide IC50 (µM), cell death, SNK6, Human natural killer/T-cell lymphoma/EBV(+), 0.1–15 µM, 6 h (suspension) or 12 h (adherent cells), PI/FACS, mean ± SEM (Table 2)) | IC50 [4] | colony formation [5] | P-gp protein in tumor [6] | EBV EA-D protein in tumor [7] | Zta gene expression on tumor tissues (IHC) [8] | association of HKDC1 with VDAC1 in HMECs [9] | association of HKDC1 with VDAC1 in SW480 cells [10] | association of HKDC1 with VDAC1 in HANK1 cells [11]
HAIYPRH-ITAVAKRLQQAQKEN [Tf-D-HKC15] | 197% | 2.91 fold | 1.2 ± 0.5 µM | 1.2 ± 0.3 µM | 0.9 ± 0.3 µM | 64% | 48% | 61% | 64% | – | – | –
HAIYPRH-LQQAQKEN [Tf-D-HKC8] | 335% | 11.4 fold | 0.3 ± 0.2 µM | – | 0.2 ± 0.1 µM | 28% | 17% | 38% | 28% | little effect | 67% | 34%
